# Source: patent US12679878B2, “CRF2 receptor agonists and their use in therapy” (SANOFI, priority 2020, dated 2026)
# Read-outs that look alike come from different tables or passages of the source. Starred links: 1 amine or outer side, 2 acyl side, 3 side chain; linkers in the order of their positions; H or OH if unused. Non-standard residues stand in square brackets, D forms with d. Residues, ends and D or L forms follow the SMILES beside them. Groups on a side chain read outwards from the residue. No end group written: not given here. *: point of attachment. C20 diacid = O=C(O)CCCCCCCCCCCCCCCCCCC(=O)*; C18 diacid = O=C(O)CCCCCCCCCCCCCCCCC(=O)*; γGlu = O=C(O)[C@H](CCC(=O)[*:2])N[*:1]; AEEA = NCCOCCOCC(=O)O; Aib = CC(C)(N)C(=O)O
# T1: human CRF2α receptor (Homo sapiens, UniProt Q13324)
# T1 construct: expressed in transfected cells; host or cells: TeloHEAC
# T1 sequence (Q13324 1-411): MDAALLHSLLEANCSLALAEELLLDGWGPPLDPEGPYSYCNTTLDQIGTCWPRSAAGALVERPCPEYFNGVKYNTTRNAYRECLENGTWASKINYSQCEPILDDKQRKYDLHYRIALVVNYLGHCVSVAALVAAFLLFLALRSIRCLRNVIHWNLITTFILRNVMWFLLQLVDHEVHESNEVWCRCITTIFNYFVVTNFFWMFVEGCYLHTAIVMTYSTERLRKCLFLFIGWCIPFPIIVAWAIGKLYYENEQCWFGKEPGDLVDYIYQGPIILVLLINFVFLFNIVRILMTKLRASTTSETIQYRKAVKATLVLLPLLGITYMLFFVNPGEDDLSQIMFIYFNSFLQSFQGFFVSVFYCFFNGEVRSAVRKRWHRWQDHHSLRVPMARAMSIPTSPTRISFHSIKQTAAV
# T2: CRF1R receptor (Homo sapiens, UniProt P34998)
# T2 construct: host or cells: CHO-K1 clone 2
# T2 sequence (P34998 24-415): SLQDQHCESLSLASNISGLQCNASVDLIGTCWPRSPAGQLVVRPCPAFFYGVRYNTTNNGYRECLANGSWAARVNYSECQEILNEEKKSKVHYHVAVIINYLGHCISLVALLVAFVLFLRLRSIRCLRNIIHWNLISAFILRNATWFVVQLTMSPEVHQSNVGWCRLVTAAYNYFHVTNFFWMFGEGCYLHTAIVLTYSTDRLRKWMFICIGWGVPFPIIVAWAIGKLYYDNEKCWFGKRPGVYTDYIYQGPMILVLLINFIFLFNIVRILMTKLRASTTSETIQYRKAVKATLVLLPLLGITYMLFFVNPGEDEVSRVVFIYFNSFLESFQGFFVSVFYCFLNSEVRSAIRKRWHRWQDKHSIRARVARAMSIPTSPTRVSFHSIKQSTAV
# T3: CRF1R receptor (anti-target) (UniProt P34998 24-415, limits assumed)
# T3 sequence (looked up): T2 sequence (P34998 24-415)
# B1: peptide of SEQ ID NO: 16 (peptide)
# peptide: IVLSLDVPIGLK([AEEA-AEEA-γGlu-C18 diacid])QKLLKQQRQRKERQQAEKNARILARV-NH2
# modifications: N-terminus assumed
# SMILES: CC[C@H](C)[C@H](N)C(=O)N[C@H](C(=O)N[C@@H](CC(C)C)C(=O)N[C@@H](CO)C(=O)N[C@@H](CC(C)C)C(=O)N[C@@H](CC(=O)O)C(=O)N[C@H](C(=O)N1CCC[C@H]1C(=O)N[C@H](C(=O)NCC(=O)N[C@@H](CC(C)C)C(=O)N[C@@H](CCCCNC(=O)COCCOCCNC(=O)COCCOCCNC(=O)CC[C@H](NC(=O)CCCCCCCCCCCCCCCCC(=O)O)C(=O)O)C(=O)N[C@@H](CCC(N)=O)C(=O)N[C@@H](CCCCN)C(=O)N[C@@H](CC(C)C)C(=O)N[C@@H](CC(C)C)C(=O)N[C@@H](CCCCN)C(=O)N[C@@H](CCC(N)=O)C(=O)N[C@@H](CCC(N)=O)C(=O)N[C@@H](CCCNC(=N)N)C(=O)N[C@@H](CCC(N)=O)C(=O)N[C@@H](CCCNC(=N)N)C(=O)N[C@@H](CCCCN)C(=O)N[C@@H](CCC(=O)O)C(=O)N[C@@H](CCCNC(=N)N)C(=O)N[C@@H](CCC(N)=O)C(=O)N[C@@H](CCC(N)=O)C(=O)N[C@@H](C)C(=O)N[C@@H](CCC(=O)O)C(=O)N[C@@H](CCCCN)C(=O)N[C@@H](CC(N)=O)C(=O)N[C@@H](C)C(=O)N[C@@H](CCCNC(=N)N)C(=O)N[C@H](C(=O)N[C@@H](CC(C)C)C(=O)N[C@@H](C)C(=O)N[C@@H](CCCNC(=N)N)C(=O)N[C@H](C(N)=O)C(C)C)[C@@H](C)CC)[C@@H](C)CC)C(C)C)C(C)C
# Experiments:
# human CRF2α receptor = target: T1, human CRF2α receptor; test: cAMP agonism at human CRF2 α receptor in TeloHEAC cells (Example 7); format: cell-based; conditions: cAMP HTRF, TeloHEAC cells stably expressing human CRF2 α
# Outline: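 Thawed frozen stably transfected cells in HBSS/20 mM HEPES (0% or 0.1% HSA) plus 2 mM IBMX were exposed to compound at 2000 cells/well for 30 min at room temperature. Intracellular cAMP was read by HTRF (665/620 nm ratio) after 1 h lysis; EC50 was derived with 1000 nM urocortin 2 set as 100%.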
# CRF1R receptor = target: T2, CRF1R receptor; test: cAMP activity at anti-target CRF1R, CRF1R-overexpression CHO cell line (Example 9); format: cell-based; conditions: CRF1R-overexpression CHO cell line; for EC50: 0% HSA; for Emax: read-out: Emax (%)
# Protocol: Cells were grown in a T175 culture flask placed at 37° C. to near confluence in medium (DMEM/10% FBS) and collected in 2 ml vials in cell culture medium containing 10% DMSO in a concentration of 10-50 million cells/ml. Each vial contained 1.8 ml cells. The vials were slowly frozen to −80° C. in isopropanol and then transferred in liquid nitrogen for storage. Prior to use, frozen cells were thawed quickly at 37° C. and washed (5 min at 900 rpm) with 20 ml cell buffer (1×HBSS; 20 mM HEPES; 0% or 0.1% HSA). Cells were resuspended in assay buffer (cell buffer plus 2 mM IBMX) and adjusted to a cell density of 1 million cells/ml. For measurement, 5 μl cells (final […]) and 5 μL of test compound were added to a 384-well plate, followed by incubation for 30 minutes at room temperature.
# The CAMP content of cells was determined using a kit from Cisbio Corp. (cat. no. 62AM4PEC) based on HTRF (Homogenous Time Resolved Fluorescence). […] The percent activity value (E %) was calculated by setting 1000 nM of urocortin 2 (UCN2) as 100%.
# A CRF1R-overexpression CHO cell line was used in this study.
# [1] = target: T3, CRF1R receptor (anti-target); test: cell-based or functional assay
# [2] = 0% HSA, read-out: EC50 [nM], 0% HSA
# [3] = 0.1% HSA, read-out: EC50 [nM], 0.1% HSA
Molecule,EC50 (human CRF2α receptor; [2]) [nM],EC50 (human CRF2α receptor; [3]) [nM],EC50 (CRF1R receptor) [nM],Emax (CRF1R receptor) [%],"EC50 [nM] 0% HSA (cAMP, HTRF) [1] [nM]",Emax (%) (100% = Sauvagine at 100 nM) [1]
CC[C@H](C)[C@H](NC(C)=O)C(=O)N[C@H](C(=O)N[C@@H](CC(C)C)C(=O)N[C@@H](CO)C(=O)N[C@@H](CC(C)C)C(=O)N[C@@H](CC(=O)O)C(=O)N[C@@H](C(=O)N1CCC[C@H]1C(=O)N[C@H](C(=O)N[C@@H](CCCCN)C(=O)N[C@@H](CC(C)C)C(=O)N[C@@H](CCCCNC(=O)COCCOCCNC(=O)COCCOCCNC(=O)CC[C@H](NC(=O)CCCCCCCCCCCCCCCCC(=O)O)C(=O)O)C(=O)N[C@@H](CCC(N)=O)C(=O)N[C@H](C(=O)N[C@@H](CC(C)C)C(=O)N[C@@H](CC(C)C)C(=O)N[C@@H](CCC(=O)O)C(=O)N[C@@H](CCC(N)=O)C(=O)N[C@@H](CCC(=O)O)C(=O)N[C@@H](CCCNC(=N)N)C(=O)N[C@@H](CCC(N)=O)C(=O)N[C@@H](CCC(=O)O)C(=O)NC(C)(C)C(=O)N[C@@H](CCC(=O)O)C(=O)N[C@@H](CCCNC(=N)N)C(=O)N[C@@H](CCC(=O)O)C(=O)N[C@@H](CCC(N)=O)C(=O)N[C@@H](C)C(=O)N[C@@H](CCC(=O)O)C(=O)N[C@@H](CCCCN)C(=O)N[C@@H](CC(N)=O)C(=O)N[C@@H](CCC(=O)O)C(=O)N[C@@H](CCC(N)=O)C(=O)N[C@H](C(=O)N[C@@H](CC(C)C)C(=O)N[C@@H](CCC(=O)O)C(=O)N[C@@H](CCC(N)=O)C(=O)N[C@H](C(N)=O)C(C)C)[C@@H](C)CC)[C@@H](C)CC)[C@@H](C)CC)C(C)C)C(C)C [compound 161] (Ac-IVLSLD[dV]PIKLK([AEEA-AEEA-γGlu-C18 diacid])QILLEQERQE[Aib]EREQAEKNEQILEQV-NH2),36,977,> 1000,3.42,,
CC[C@H](C)[C@H](N)C(=O)N[C@H](C(=O)N[C@@H](CC(C)C)C(=O)N[C@@H](CO)C(=O)N[C@@H](CC(C)C)C(=O)N[C@@H](CC(=O)O)C(=O)N[C@@H](C(=O)N1CCC[C@H]1C(=O)N[C@H](C(=O)N[C@@H](CCCCN)C(=O)N[C@@H](CC(C)C)C(=O)N[C@@H](CCCCNC(=O)COCCOCCNC(=O)COCCOCCNC(=O)CC[C@H](NC(=O)CC[C@H](NC(=O)CCCCCCCCCCCCCCCCC(=O)O)C(=O)O)C(=O)O)C(=O)N[C@@H](CCC(N)=O)C(=O)N[C@H](C(=O)N[C@@H](CC(C)C)C(=O)N[C@@H](CC(C)C)C(=O)N[C@@H](CCCCN)C(=O)N[C@@H](CCC(N)=O)C(=O)N[C@@H](CCC(=O)O)C(=O)N[C@@H](CCCNC(=N)N)C(=O)N[C@@H](CCC(N)=O)C(=O)N[C@@H](CCCCN)C(=O)NC(C)(C)C(=O)N[C@@H](CCC(N)=O)C(=O)N[C@@H](CCCNC(=N)N)C(=O)N[C@@H](CCC(=O)O)C(=O)N[C@@H](CCC(N)=O)C(=O)N[C@@H](C)C(=O)N[C@@H](CCC(=O)O)C(=O)N[C@@H](CCCCN)C(=O)N[C@@H](CC(N)=O)C(=O)N[C@@H](CCCCN)C(=O)N[C@@H](CCC(N)=O)C(=O)N[C@H](C(=O)N[C@@H](CC(C)C)C(=O)N[C@@H](C)C(=O)N[C@@H](CCC(N)=O)C(=O)N[C@H](C(N)=O)C(C)C)[C@@H](C)CC)[C@@H](C)CC)[C@@H](C)CC)C(C)C)C(C)C [compound 171] (H-IVLSLD[dV]PIKLK([AEEA-AEEA-γGlu-γGlu-C18 diacid])QILLKQERQK[Aib]QREQAEKNKQILAQV-NH2),0.17,2.62,> 1000,7.54,,
CC[C@H](C)[C@H](N)C(=O)N[C@H](C(=O)N[C@@H](CC(C)C)C(=O)N[C@@H](CO)C(=O)N[C@@H](CC(C)C)C(=O)N[C@@H](CC(=O)O)C(=O)N[C@@H](C(=O)N1CCC[C@H]1C(=O)N[C@H](C(=O)N[C@@H](CCCCN)C(=O)N[C@@H](CC(C)C)C(=O)N[C@@H](CCCCNC(=O)COCCOCCNC(=O)COCCOCCNC(=O)CC[C@H](NC(=O)CC[C@H](NC(=O)CCCCCCCCCCCCCCCCCCC(=O)O)C(=O)O)C(=O)O)C(=O)N[C@@H](CCC(N)=O)C(=O)N[C@H](C(=O)N[C@@H](CC(C)C)C(=O)N[C@@H](CC(C)C)C(=O)N[C@@H](CCCCN)C(=O)N[C@@H](CCC(N)=O)C(=O)N[C@@H](CCC(=O)O)C(=O)N[C@@H](CCCNC(=N)N)C(=O)N[C@@H](CCC(N)=O)C(=O)N[C@@H](CCCCN)C(=O)NC(C)(C)C(=O)N[C@@H](CCC(N)=O)C(=O)N[C@@H](CCCNC(=N)N)C(=O)N[C@@H](CCC(=O)O)C(=O)N[C@@H](CCC(N)=O)C(=O)N[C@@H](C)C(=O)N[C@@H](CCC(=O)O)C(=O)N[C@@H](CCCCN)C(=O)N[C@@H](CC(N)=O)C(=O)N[C@@H](CCCCN)C(=O)N[C@@H](CCC(N)=O)C(=O)N[C@H](C(=O)N[C@@H](CC(C)C)C(=O)N[C@@H](C)C(=O)N[C@@H](CCC(N)=O)C(=O)N[C@H](C(N)=O)C(C)C)[C@@H](C)CC)[C@@H](C)CC)[C@@H](C)CC)C(C)C)C(C)C [compound 172] (H-IVLSLD[dV]PIKLK([AEEA-AEEA-γGlu-γGlu-C20 diacid])QILLKQERQK[Aib]QREQAEKNKQILAQV-NH2; N-terminus assumed),0.04,2.76,> 1000,25.6,,
B1,,,,,> 100,0.4
